Here are results for six compounds from DBAASP.

Common to all, as to assay: ≥ marks a high value that may be exact or a test limit, other limits are often not marked, values filed in µg/mL are converted to µM
The test system of test [1] is Acinetobacter baumannii ATCC 7978.
Test [2] deals with Pseudomonas aeruginosa PA14.
The test system of test [3] is Klebsiella pneumoniae WGLW2.
Test [4] relates to Staphylococcus aureus ATCC 29231.
Test [5] has as its system Pseudomonas aeruginosa.
Test [6] concerns Staphylococcus aureus.
The test system of test [7] is Escherichia coli B.
In test [8] the test system is Staphylococcus epidermidis.
Test [9] relates to Pseudomonas aeruginosa ATCC 27853.
The test system of test [10] is Staphylococcus aureus 1.
Test [11] concerns Candida albicans F7-39/IDE99.
For test [12], the system named is Bacillus subtilis 168.
Test [13] has as its system Micrococcus luteus CCM 144.
Test [14] has as its system Staphylococcus aureus ATCC 43300.
Test [15] relates to Salmonella typhimurium.
Test [16] relates to Shigella dysenteriae.
Test [17] concerns Proteus mirabilis.
Test [18] concerns Serratia marcescens.
Test [19] relates to Escherichia coli.
Test [20] concerns Bacillus subtilis.
Test [21] concerns Saccharomyces cerevisiae.
The subject of test [22] is Micrococcus luteus.
Test [23] relates to Candida albicans.
Test [24] relates to Candida albicans ATCC 2002.
Test [25] deals with Staphylococcus aureus ATCC 2592.
Test [26] deals with Escherichia coli ATCC 25922.
For test [27], the system named is Bacillus subtilis ATCC 6633.
Test [28] concerns Candida parapsilosis ATCC 22019.
The test system of test [29] is Staphylococcus aureus ST1065.
In test [30] the test system is Staphylococcus aureus ATCC 25923.
Test [31] deals with Staphylococcus aureus ATCC BAA-44.
For test [32], the system named is Acinetobacter baumannii ATCC 19606.
Test [33] has as its system Enterococcus faecalis ATCC 29212.
Test [34] relates to Streptococcus pyogenes ATCC 19615.
For test [35], the system named is Klebsiella pneumoniae ATCC 13883.
Test [36] has as its system Escherichia coli ML-35p.

The structures appear in SMILES notation. Values after ≈ are worked out from the molar mass of the structure shown.

In the case of `CC[C@H](C)[C@H](NC(=O)[C@H](CCCCN)NC(=O)[C@H](Cc1c[nH]c2ccccc12)NC(=O)[C@H](Cc1c[nH]c2ccccc12)NC(=O)[C@@H](NC(=O)[C@H](CCCCN)NC(=O)[C@H](Cc1c[nH]c2ccccc12)NC(=O)[C@@H](N)CC(C)C)[C@@H](C)CC)C(=O)N[C@@H](Cc1c[nH]c2ccccc12)C(=O)N[C@@H](CCCN=C(N)N)C(=O)N[C@H](C(=O)N[C@@H](Cc1c[nH]c2ccccc12)C(=O)N[C@@H](Cc1c[nH]c2ccccc12)C(=O)N[C@@H](CC(N)=O)C(=O)N[C@@H](Cc1c[nH]c2ccccc12)C(=O)N[C@@H](CCCN=C(N)N)C(=O)O)C(C)C` [LWKIWWKIWRVWWNWR], the MIC in [1], in test [2], in [3] and in test [4] was not below 52.4 µM throughout.
As to `CC[C@H](C)[C@H](NC(=O)CN)C(=O)N[C@@H](CCSC)C(=O)N[C@@H](CO)C(=O)N[C@@H](CO)C(=O)N[C@@H](CC(C)C)C(=O)N[C@@H](CCSC)C(=O)N[C@@H](CCCCN)C(=O)N[C@@H](CCCCN)C(=O)N[C@@H](CC(C)C)C(=O)N[C@@H](CCCCN)C(=O)N[C@@H](CCCCN)C(=O)N[C@H](C(=O)N[C@H](C(=O)N[C@@H](CCCCN)C(=O)N[C@@H](CCCCN)C(N)=O)[C@@H](C)CC)[C@@H](C)CC` [GIMSSLMKKLKKIIKK], the MIC – broadly, the lowest concentration found to suppress growth – in test [5] was 9.9 µM (≈ 18.3 µg/mL); in [6], 65 µM (≈ 120 µg/mL); in test [7] it was 22 µM (≈ 40.6 µg/mL); in test [8], 1.7 µM (≈ 3.14 µg/mL); in [9] it was 7.1 µM (≈ 13.1 µg/mL); in test [10], 18 µM (≈ 33.2 µg/mL). Further, the MIC in test [11] stood at 6.3 µM (≈ 11.6 µg/mL); in test [12], 7 µM (≈ 12.9 µg/mL); in [13], 3 µM (≈ 5.54 µg/mL); in [14], 54 µM (≈ 99.7 µg/mL).
Take `CC[C@H](C)[C@H](NC(=O)CN)C(=O)N[C@@H](CC(C)C)C(=O)N[C@@H](CC(=O)O)C(=O)N[C@H](C(=O)N[C@@H](CC(C)C)C(=O)N[C@@H](CCCCN)C(=O)N[C@@H](CCC(N)=O)C(=O)N[C@@H](Cc1ccccc1)C(=O)N[C@@H](C)C(=O)N[C@@H](CCCCN)C(=O)NCC(=O)N[C@H](C(=O)NCC(=O)N[C@@H](CCCCN)C(=O)N[C@@H](CC(=O)O)C(=O)N[C@@H](CC(C)C)C(=O)N[C@H](C(=O)N[C@@H](CCCCN)C(=O)NCC(=O)N[C@@H](C)C(=O)N[C@@H](C)C(=O)N[C@@H](CCC(N)=O)C(=O)NCC(=O)N[C@H](C(=O)O)C(C)C)C(C)C)C(C)C)[C@@H](C)O` [GILDTLKQFAKGVGKDLVKGAAQGV]: the MIC in test [5] was 39.8 µM (≈ 100 µg/mL); in test [15] it was not below 39.8 µM; in test [16], 19.9 µM (≈ 50 µg/mL); in test [8] it was 29.8 µM (≈ 75 µg/mL); in test [17], 19.9 µM (≈ 50 µg/mL); in test [18], not below 39.8 µM. The MIC was 19.9 µM (≈ 50 µg/mL) in [19]; not below 39.8 µM in [20]; 19.9 µM (≈ 50 µg/mL) in test [21]; 1.99 µM (≈ 5 µg/mL) in test [22]; more than 39.8 µM in [23].
For the compound `CC[C@H](C)[C@H](NC(=O)CN)C(=O)N[C@@H](CC(C)C)C(=O)N[C@@H](CCCCN)C(=O)N[C@@H](CO)C(=O)N[C@@H](CC(C)C)C(=O)N[C@@H](CC(C)C)C(=O)N[C@@H](CCCCN)C(=O)N[C@@H](CCCCN)C(=O)N[C@@H](CC(C)C)C(=O)N[C@@H](CCCCN)C(=O)N[C@@H](CCCCN)C(=O)N[C@H](C(=O)N[C@H](C(=O)N[C@@H](C)C(=O)N[C@@H](CCCCN)C(N)=O)[C@@H](C)CC)[C@@H](C)CC` [GILKSLLKKLKKIIAK], the MIC in [5] was determined as 8.9 µM (≈ 16 µg/mL); in test [6] it was 10 µM (≈ 17.9 µg/mL); in test [7] it was 10 µM (≈ 17.9 µg/mL); in [8], 2.2 µM (≈ 3.95 µg/mL); in test [9] it was 5 µM (≈ 8.97 µg/mL); in test [10] it was 4.3 µM (≈ 7.71 µg/mL). Also, the MIC in test [11] is 24 µM (≈ 43 µg/mL); in test [12], 7 µM (≈ 12.6 µg/mL); in test [13], 3 µM (≈ 5.38 µg/mL); in [14], 17 µM (≈ 30.5 µg/mL).
Take `CC(C)C[C@H](NC(=O)CNC(=O)[C@@H](NC(=O)[C@H](CCCCN)NC(=O)CNC(=O)[C@H](C)NC(=O)[C@H](Cc1c[nH]c2ccccc12)NC(=O)[C@H](CCCCN)NC(=O)[C@H](CC(C)C)NC(=O)[C@H](CC(C)C)NC(=O)[C@H](Cc1ccccc1)NC(=O)[C@H](CCCCN)NC(=O)[C@H](CC(C)C)NC(=O)[C@@H](NC(=O)[C@H](Cc1ccccc1)NC(=O)[C@@H](N)Cc1ccccc1)C(C)C)C(C)C)C(=O)N[C@@H](CCC(=O)O)C(=O)N[C@@H](Cc1cnc[nH]1)C(=O)N[C@@H](CC(C)C)C(=O)N[C@@H](C)C(=O)N[C@H]1CSSC[C@@H](C(=O)O)NC(=O)[C@H](Cc2c[nH]c3ccccc23)NC(=O)[C@H](CC(N)=O)NC(=O)[C@H](CCCCN)NC(=O)[C@H](Cc2ccccc2)NC(=O)[C@H](CCCCN)NC1=O` [FFVLKFLLKWAGKVGLEHLACKFKNWC]: the MIC in test [16] stood at 0.465 µM (≈ 1.5 µg/mL); in test [24], 3.87 µM (≈ 12.5 µg/mL); in [25], 3.87 µM (≈ 12.5 µg/mL); in [26] it was 1.94 µM (≈ 6.25 µg/mL); in test [27], 0.465 µM (≈ 1.5 µg/mL).
As for `CC[C@H](C)[C@H](NC(=O)[C@H](Cc1cnc[nH]1)NC(=O)[C@@H]1CCCN1C(=O)[C@@H](NC(=O)[C@H](CCSC)NC(=O)[C@H](CO)NC(=O)[C@H](CC(C)C)NC(=O)[C@@H](N)Cc1ccccc1)[C@@H](C)CC)C(=O)N[C@H](C(=O)N[C@@H](CO)C(=O)NCC(=O)N[C@H](C(=O)N[C@@H](C)C(=O)N[C@@H](C)C(=O)N[C@@H](CC(C)C)C(=O)N[C@@H](C)C(=O)N[C@@H](CCCCN)C(=O)N[C@@H](Cc1cnc[nH]1)C(=O)N[C@@H](CC(C)C)C(N)=O)C(C)C)C(C)C` [FLSMIPHIVSGVAALAKHL], the MIC is not below 50 µM in [28]; 6.25 µM (≈ 12.5 µg/mL) in test [29]; 6.25 µM (≈ 12.5 µg/mL) in test [30]; 6.25 µM (≈ 12.5 µg/mL) in [31]; 100 µM (≈ 200 µg/mL) in test [9]; 6.25 µM (≈ 12.5 µg/mL) in [32]. Also, the MIC in test [33] came out at 50 µM (≈ 100 µg/mL); in test [21] it was 12.5 µM (≈ 25 µg/mL); in [26], 25 µM (≈ 50.1 µg/mL); in test [34] it was 3.12 µM (≈ 6.25 µg/mL); in test [14] it was 6.25 µM (≈ 12.5 µg/mL); in [35], 25 µM (≈ 50.1 µg/mL). The same compound displayed an MIC in [36] of 25 µM (≈ 50.1 µg/mL).
